# Source: paper PMC3486884 (PLoS Pathogens, 2012)
# Values joined by “and” are separate entries in the source; they are usually repeats but may differ in a detail not shown here. Equal entries are not always repeated. Where two headings read alike, the source gives them in different places.
# Assays:
# HRV16 [1] = experiment: microbe, parasite or virus in culture; settings: Human rhinovirus sp., HRV16, HeLa, read-out: IC50 (HRV16)
# [2] = tested on: influenza virus (strain A/Puerto Rico/8/34/H1N1 depicted PR8); experiment: microbe, parasite or virus in culture; settings: unidentified influenza virus, A549, read-out: IC50 (PR8)
# HRV1A, 2, 14, 16 = experiment: Infection assays with the HRV panel in HeLa cells; type: cell-based, human rhinovirus
# [3] = cited from earlier work
# CVB4 [4] = experiment: microbe, parasite or virus in culture; settings: Enterovirus B, CVB4, HeLa, read-out: IC50 (CVB4)
# CVA21 [5] = tested on: CVA21
# HRV1A [6] = experiment: HRV1A infection of WI-38 human embryonic diploid airway cells; type: cell-based; settings: Human rhinovirus sp.
# Protocol: A single cell high-content, image based infection assay was applied to measure infection in high throughput format. Viruses were added to cells in infection medium containing BSA (DMEM containing 25 mM HEPES if used outside of a CO2 cell culture incubator, supplemented with L-glutamine, 30 mM MgCl2 and 0.2% BSA (Sigma) for CV and HRV), or in infection medium containing trypsin-TPCK (DMEM supplemented with L-glutamine and TPCK-trypsin 1 µg/ml (Sigma) for FLU/PR8) and normal growth media for HSV. For all experiments, the multiplicity of infection (moi) was chosen such that approximately 20–40% of the cells were infected at 7 h post infection (pi) (HRV &CV), 8 h pi (FLU) or 18 h pi (HSV). Cells were fixed by adding 1/3 volume of a 16% para-formaldehyde solution, washed with PBS, PBS/25 mM NH4Cl and PBS, permeabilized with 0.2% Triton X-100 (Sigma), washed twice with PBS and blocked with PBS/1% BSA (Fraction V, Sigma). […] Routinely, 9–20 images per well were acquired yielding an average of 5000–12000 cells analysed per well and data point. […] Images were analyzed using a custom written Matlab routine. […]
# Compounds were dissolved in dimethyl sulfoxid (DMSO, cell culture grade, Sigma) and added to cells in dilutions indicated with respective concentrations of solvent alone as controls. […] Infection was quantified by immune-staining for dsRNA. […]
# HRV2 [7] = tested on: HRV2
# HSV1 [8] = tested on: HSV1
# CVB4 [9] = tested on: CVB4
# CVA21 [10] = experiment: microbe, parasite or virus in culture; settings: Coxsackievirus, CVA21, HeLa, read-out: IC50 (CVA21)
# HRV1A [11] = experiment: Full cycle infectivity assay (virus titer, TCID50); type: cell-based, human rhinovirus; settings: full cycle assays; BafA1 (0.5 nM), alone or drug combination
# CVB3 [12] = tested on: CVB3
# [13] = tested on: clathrin-coated vesicles (CCV); experiment: Acridine orange measurements in clathrin-coated vesicles; settings: AO red fluorescence assay
# Protocol: CCV suspended in assay buffer (10 mM HEPES, pH7, 100 mM KCl, 1 mM EDTA) were incubated with 1 mM ATP, 2 µM AO (Molecular Probes). The ATPase reaction was initiated by adding MgCl2 to 1 mM and fluorescence was determined at 492/540 nm in a plate reader (Tecan, Männedorf, Switzerland) at room temperature after 10 min. BafA1 and samples without MgCl2 were used as controls.
# [14] = pKa and log P quoted from the literature; type: physicochemical; settings: pH 7.4
# CVB3 [15] = experiment: microbe, parasite or virus in culture; settings: Enterovirus B, CVB3, HeLa, read-out: IC50 (CVB3)
# HRV2 [16] = experiment: microbe, parasite or virus in culture; settings: Human rhinovirus sp., HRV2, HeLa, read-out: IC50 (HRV2)
# HSV1 [17] = experiment: microbe, parasite or virus in culture; settings: Human alphaherpesvirus 1, read-out: IC50 (HSV1)
# rats = settings: cited from earlier work
# [18] = Liposome dextran-FITC de-quenching; settings: read-out: FITC-fluorescence dequenching, half maximal efficacy; liposomes loaded at pH 5.15 with dextran-FITC
# Protocol: Liposomes from soy phosphatidyl-choline were prepared in 100 mM acetate pH 5.15 containing 1 mM 4.4 kDa FITC-dextran using standard extrusion protocols yielding vesicles of an average size of 200 nm measured using a particle size analyzer (Nicomp 370, Nicomp, Port Richey, FL, USA). Non-encapsulated FITC-dextran was removed by size exclusion chromatography in a G25 column (Pharmacia) followed by extensive dialysis against 100 mM acetate pH 5.15 in a Floatalyzer with 50 kDa cut-off (Spectrumlabs). To measure fluorescence de-quenching FITC-dextran containing liposomes were diluted in PBS at 20–60 µg/ml, incubated with the respective compounds at room temperature and analysed for fluorescence using a plate reader (TECAN Safire II) with fluorescence TOP measurement settings at excitation of 483/10 nm and emission of 525/15 nm wavelength within 15 min. Control measurements of samples containing PBS, Triton X-100 or the compounds alone were carried out to measure background, maximal readout of the assay and auto-fluorescence of compounds. The data were normalized to the PBS control and background fluorescence was subtracted.
# [19] = tested on: influenza virus (strain A/Puerto Rico/8/34/H1N1 depicted PR8)
# HRV16 [20] = tested on: HRV16
# HRV14 [21] = experiment: microbe, parasite or virus in culture; settings: Human rhinovirus sp., HRV14, HeLa, read-out: IC50 (HRV14)
# HRV1A [22] = experiment: microbe, parasite or virus in culture; settings: Human rhinovirus sp.
# HRV14 [23] = tested on: HRV14
smiles,measurement,setting,value
"O=C(Nc1ccc([N+](=O)[O-])cc1Cl)c1cc(Cl)ccc1O [niclosamide, 5-chloro-N-(2-chloro-4-nitrophenyl)-2-hydroxybenzamide, reference compound]",IC50,HRV16 [1],1380 nM
same,IC50,[2],830 nM
same,IC50,"HRV1A, 2, 14, 16; Human rhinovirus sp., HRV1A, HeLa, read-out: IC50 (range over HRV1A, 2, 14, 16)",840 to 1400 nM
same,effect of drug washout on the antiviral effect,"HRV1A, 2, 14, 16; cells pre-treated 30 min or 18 h, washed with drug-free medium",completely abolished the antiviral effect
same,time of addition giving half maximal effects,"HRV1A, 2, 14, 16; compound added before or post infection of HeLa cells with HRV",≤ 30 min pi
same,effect of virus pre-treatment on the inhibition profile,"HRV1A, 2, 14, 16; viruses pre-treated at up to 400 µM at 37°C for 30 min",did not affect the inhibition profile
same,log P,[3]; pH 5.7,5.63
same,log P,[3]; pH 7,4.48
same,IC50,CVB4 [4],3880 nM
same,"TI (IC50 / CC50), CVA21",CVA21 [5],3.06
same,IC50,HRV1A [6],1300 nM
same,"TI (IC50 / CC50), HRV2",HRV2 [7],20.1
same,"TI (IC50 / CC50), HSV1",HSV1 [8],1.37
same,"TI (IC50 / CC50), CVB4",CVB4 [9],5.22
same,IC50,CVA21 [10],6630 nM
same,decrease of virus titers,HRV1A [11],about five-fold
same,"TI (IC50 / CC50), CVB3",CVB3 [12],< 0.4
same,pH of isolated CCV,[13],neutralized the pH of CCV in a dose-dependent manner
same,molecules in the deprotonated form,[14],about 99%
same,IC50,CVB3 [15],> 50000 nM
same,IC50,HRV2 [16],1010 nM
same,IC50,HSV1 [17],> 10000 nM and 14800 nM
same,acute oral toxicity LD50,rats,> 5 g/kg body weight
same,EC50,[18],14000 nM
same,"TI (IC50 / CC50), PR8",[19],24.4
same,"TI (IC50 / CC50), HRV16",HRV16 [20],14.7
same,IC50,HRV14 [21],840 nM
same,IC50,"HRV1A [22]; HeLa, read-out: IC50 (HRV1A)",1040 nM
same,activity at 0.03 µM,"HRV1A [22]; M-HeLa, 7 h, read-out: HRV1A infection (dsRNA), 0.03 µM",98%
same,activity at 0.1 µM,"HRV1A [22]; M-HeLa, 7 h, read-out: HRV1A infection (dsRNA), 0.10 µM",96%
same,activity at 0.31 µM,"HRV1A [22]; M-HeLa, 7 h, read-out: HRV1A infection (dsRNA), 0.31 µM",90%
same,activity at 0.93 µM,"HRV1A [22]; M-HeLa, 7 h, read-out: HRV1A infection (dsRNA), 0.93 µM",39%
same,activity at 2.78 µM,"HRV1A [22]; M-HeLa, 7 h, read-out: HRV1A infection (dsRNA), 2.78 µM",4%
same,activity at 8.33 µM,"HRV1A [22]; M-HeLa, 7 h, read-out: HRV1A infection (dsRNA), 8.33 µM",5%
same,activity at 25 µM,"HRV1A [22]; M-HeLa, 7 h, read-out: HRV1A infection (dsRNA), 25.00 µM",4%
same,"TI (IC50 / CC50), HRV14",HRV14 [23],24.1
